Results taken from the NIST ThermoML archive (doi:10.1021/je100237h).

Details: Liquid; for viscosity: 101.33 kPa, Concentric cylinders viscometry; for mass density: Vibrating tube method

CC(C)COC(=O)CCCCC(=O)OCC(C)C [diisobutyl adipate]
Details | viscosity [mPa·s]
283.15 K | 8.56
288.15 K | 7.22
293.15 K | 6.17
298.15 K | 5.33
303.15 K | 4.65
308.15 K | 4.09
313.15 K | 3.63
318.15 K | 3.24
323.15 K | 2.92
328.15 K | 2.64
333.15 K | 2.4
338.15 K | 2.19
343.15 K | 2.01

mass density [kg/m3]
Details | 293.15 K | 303.15 K | 313.15 K | 323.15 K | 333.15 K | 343.15 K
100 kPa | 951.7 | 942.8 | 934.2 | 925.6 | 916.7 | 908.1
10000 kPa | 958.4 | 949.9 | 941.6 | 933.4 | 924.9 | 916.3
20000 kPa | 964.7 | 956.4 | 948.5 | 940.5 | 932.4 | 924.3
30000 kPa | 970.6 | 962.6 | 954.9 | 947.3 | 939.3 | 931.5
40000 kPa | 976.1 | 968.3 | 960.9 | 953.7 | 945.8 | 938.3
50000 kPa | 981.4 | 974 | 966.6 | 959.7 | 952 | 944.7
60000 kPa | 986.4 | 979.1 | 972.1 | 965.2 | 957.8 | 950.8
70000 kPa | 991.2 | 984.2 | 977.2 | 970.6 | 963.3 | 956.3
80000 kPa | 995.9 | 989 | 982 | 975.6 | 968.5 | 961.8
90000 kPa | 1000.3 | 993.4 | 986.7 | 980.5 | 973.4 | 967
100000 kPa | 1004.7 | 997.8 | 991.2 | 985.3 | 978.2 | 971.8
110000 kPa | 1008.7 | 1002.1 | 995.6 | 989.8 | 982.8 | –
120000 kPa | 1012.7 | 1006.3 | 999.9 | 994.2 | 987.3 | –
130000 kPa | 1016.6 | 1010.3 | 1003.9 | 998.3 | 991.6 | –
140000 kPa | 1020.3 | 1014 | 1007.9 | 1003 | 995.7 | –
